# Test results as given in patent publication US20110076349A1 (priority 2008, published 2011).
# Counter-ions that a name gives are not always drawn.
# How the values were obtained:
# Assay type in all cases: in vivo, mouse
# [1] = tested on: mice; experiment: Deep body temperature measurement, comparison with other test substances (FIG. 18); settings: same concentration for all test substances
# [2] = tested on: mice; experiment: Comparison of sedative effects with other test substances (FIG. 3); settings: same dose, 0.8 g/kg, p.o.
# [3] = tested on: male C57BL/6N mice; experiment: Forced swimming treatment and amount of spontaneous activity in dark period (fatigue-relieving effects); settings: dark period after 30 minutes of forced swimming; compared with FS-Vehicle group
# Experimental: An experiment for determining the fatigue-improving effects (action) was conducted using a forced swimming test for mice and a system for measuring the amount of spontaneous activity. Sixty eight (68) male C57BL/6N mice that had experienced no experiment were bred in an animal room with a constant temperature and humidity for which a 12-12-hour light-dark cycle had been set. Mice were sufficiently acclimatized to breeding environment and then used as subject animals. At the start of the experiment, mice were 10-12-week old and the average body weight was 22.8 g (SD =1.28). The subject animals were divided into seven groups so that the groups were almost the same in terms of average body weights and average ages in weeks. These groups were designated an FS-Akino group (n=11), an FS-Vehicle group (n=10), a noFS-Vehicle group (n=9), an FS-Dia group (n=9), an FS-Caf group (n=9), an FS-Imi group (n=11), and an FS-SSRI group (n=9).
# A cylindrical water tank (with the bottom surface having a diameter of 18 cm and a height of 29 cm) placed in an experimental chamber capable of achieving sound proof and light shielding was filled with water at 24±1° C. to a depth of 15 cm. At 7 hours before the start of a dark period, subject mice under FS conditions were subjected to 30 minutes of forced swimming treatment in the tank. Specifically, subject mice were forced to swim under conditions in which they could not escape. Subject mice of the control noFS-Cnt group were left to stand within the same type of empty water tank for 30 minutes.
# After 30 minutes of forced swimming treatment, Akino (the water soluble ingredient extracted from Hemerocallis fulva var. sempervirens), diazepam (Dia, 2.5 mg/kg), caffeine (Caf, 15 mg/kg), imipramine (Imi, 30 mg/kg), SSRI (fluvoxamine maleate, 25 mg/kg), or Vehicle (distilled water), which is an ingredient, corresponding to the latter half of each group name, were specifically administered to each subject mouse. Akino and distilled water were orally administered using a stomach tube, and diazepam, caffeine, imipramine, and SSRI were injected intraperitoneally. The dose was always 10 ml of solution per kg mouse body weight.
# After administration of these drugs, subject mice were placed in acrylic cages (20 cm long×30 cm wide×12 cm high). The amount of spontaneous activity (in the dark period that began at 6 hours after administration) was continuously measured for 12 hours. The breeding cages used herein were sterilized in advance. All floor mats, feeding stuffs, water supply bottles, and the like used herein were newly prepared. The amount of spontaneous activity was measured using a system for measuring the amount of exercise of experimental animals (Muromachi Kikai Co., Ltd.) using Super Mex Sensor and dedicated software (CompACT AMS ver.3).
# [4] = tested on: male C57BL/6N mice; experiment: Open space swimming treatment and water maze learning (antidepressant-like effects); settings: phase 2 after open space swimming; 25 mg/kg intraperitoneal
# Description: Fifty (50) male C57BL/6N mice that had experienced no experiment were bred in an animal room with a constant temperature and humidity for which a 12-12-hour light-dark cycle had been set. Mice were sufficiently acclimatized to breeding environment and then used as subject animals. At the start of the experiment, mice were 10-14-week old and the average body weight was 23.7 g (SD=3.21). The subject animals were divided into four groups each consisting of 12 or 13 mice so that the groups were almost the same average body weights and average ages in weeks. These groups were designated an OS-Akino group, an OS-SSRI group, an OS-Vehicle group, and a noOS-Vehicle group, respectively. An experimental apparatus was a circular pool coated white having a diameter of 110 cm and a height of 40 cm. The pool was filled with water to the depth of 22 cm. Titanium oxide was added to make water cloudy. The water temperature was maintained at 24° C.±1 ° C.
# The experiment was composed of two phases. In phase 1, subject mice of the 3 groups under OS conditions were subjected to open space swimming treatment (OS) for 5 straight days. Specifically, subject mice were released into the pool from a wall once a day and then caused to swim for 5 minutes. […] Specifically, 5 times a day, mice were released into the pool and then the time for the mice to reach the escape platform (escape latency) was measured. […]
Compound,rectal temperature (deep body temperature) [1],sedative effects [2],amount of spontaneous activity [3],water maze learning [4]
CCNC(=O)CC[C@H](N)C(=O)O [teanin],"lowered the deep body temperature, but the rate of decrease was lower",sedative effects,,
"CN1C(=O)CN=C(c2ccccc2)c2cc(Cl)ccc21 [Dia, diazepam]",,,higher than that of the FS-Vehicle group,
"CN(C)CCCN1c2ccccc2CCc2ccccc21 [Imi, imipramine]",,,equivalent to that of the FS-Vehicle group,
"NCCCC(=O)O [GABA, γ-aminobutyric acid]","lowered the deep body temperature, but the rate of decrease was lower",sedative effects,,
NCC(=O)O [glycine],"lowered the deep body temperature, but the rate of decrease was lower",sedative effects,,
"Cn1c(=O)c2c(ncn2C)n(C)c1=O [Caf, caffeine]",,,equivalent to that of the FS-Vehicle group,
"COCCCC/C(=N\OCCN)c1ccc(C(F)(F)F)cc1 [SSRI, fluvoxamine maleate]",,,equivalent to that of the FS-Vehicle group,good learning
